Test results as given in patent publication US11944603B2, “Use of compound or medicinal derivative thereof in inhibiting AIM2 protein activity” (priority 2022, dated 2024).

Assays:
human AIM2 protein = target: T1, human AIM2 protein (Homo sapiens, UniProt O14862); test: Affinity by surface-plasmon resonance (Biacore), amino coupling; details: human full-length AIM2 protein, SPR; read-out: binding constant
T1 construct: a human full-length AIM2 protein is expressed and purified firstly by pET28a vector; made in house
T1 sequence (O14862 1-343): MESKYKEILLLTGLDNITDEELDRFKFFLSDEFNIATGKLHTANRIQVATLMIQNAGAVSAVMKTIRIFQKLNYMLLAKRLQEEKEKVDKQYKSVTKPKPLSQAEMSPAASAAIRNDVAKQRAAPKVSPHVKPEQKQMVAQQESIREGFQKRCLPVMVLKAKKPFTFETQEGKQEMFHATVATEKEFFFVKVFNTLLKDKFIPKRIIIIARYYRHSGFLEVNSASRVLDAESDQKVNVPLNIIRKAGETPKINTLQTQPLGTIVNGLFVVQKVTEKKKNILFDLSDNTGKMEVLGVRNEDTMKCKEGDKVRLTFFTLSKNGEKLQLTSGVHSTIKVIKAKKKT
Protocol: (§1) In the embodiment of the disclosure, the affinity between SLD-1 and human AIM2 protein is detected. Specifically, a human full-length AIM2 protein is expressed and purified firstly by pET28a vector, and then the affinity is determined by CMS chip amino-coupling method through a surface-plasmon resonance (SPR) method of Biacore.

mouse AIM2 protein = target: T2, mouse AIM2 protein (Mus musculus, UniProt Q91VJ1); test: Affinity by surface plasmon resonance (Biacore), amino coupling; details: mouse full-length AIM2 protein, SPR; read-out: binding constant
T2 construct: a mouse full-length AIM2 protein is expressed and purified firstly by pET28a vector; made in house
T2 sequence (Q91VJ1 1-354): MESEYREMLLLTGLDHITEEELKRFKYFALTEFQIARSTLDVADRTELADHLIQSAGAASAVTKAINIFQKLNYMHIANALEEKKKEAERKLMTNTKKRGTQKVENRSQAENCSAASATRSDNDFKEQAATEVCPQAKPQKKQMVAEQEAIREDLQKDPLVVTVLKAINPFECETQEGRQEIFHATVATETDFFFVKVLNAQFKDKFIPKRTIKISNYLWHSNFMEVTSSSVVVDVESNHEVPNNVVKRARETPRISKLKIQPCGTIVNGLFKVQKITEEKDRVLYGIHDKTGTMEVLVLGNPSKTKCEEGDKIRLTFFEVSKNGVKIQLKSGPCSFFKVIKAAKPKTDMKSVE
Protocol: as §1, with “mouse” for “human”, “amino coupling” for “amino-coupling”, “by” for “through”, “surface plasmon” for “surface-plasmon”

[1] = tested on: IL-1β mRNA in HaCaT cells; test: Screening in HaCaT cell model stimulated by OligodA-T, real-time PCR of IL-1β mRNA; type: cell-based; details: 10 uM, 24 hours, OligodA-T 1 ug/mL, among 100 compounds
Protocol: The protective ability of 100 compounds screened above against cell pyroptosis of HaCaT cells stimulated by OligodA-T is evaluated by the real-time fluorescent quantitative polymerase chain reaction (PCR) detection of IL-1β mRNA in the stimulated cells.
1. Positive control (PC) and negative control (NC) are set in the experimental group. An inclusion of Lip3000 (Lipofectamine™ 3000 Transfection Reagent) and OligodA-T (OligodA-T:Lip3000:P3000=1:1:25, a concentration of OligodA-T is 1 microgram per […] (ug/mL)) is used to transfect HaCat cells. Lip3000-OligodA-T and 10 micromoles per liter (uM) small molecule inhibitor are used to transfect the HaCat cells in each treatment group, and only the same amount of transfection reagent (Lip3000:P3000=1:1) is added in NC group.
2. Each experimental group is incubated in a cell incubator containing 5% CO2 for 24 hours at 37° C., and the cells are collected for real-time fluorescence PCR detection.

[2] = tested on: AIM2 pathway in HaCaT cells; test: HaCaT cell model, real-time fluorescence PCR of IL-1β and AIM2 pathway genes; type: cell-based; details: 25 uM
Protocol: (§2) (1) A positive control (PC), a negative control (NC) and respective treatment groups are set. An inclusion of Lip3000 (Lipofectamine™ 3000 Transfection Reagent) and OligodA-T (OligodA-T:Lip3000:P3000=1:1:25, a concentration of OligodA-T is 1 ug/mL) is used to transfect HaCat cells, and only the same amount of transfection reagent (Lip3000:P3000=1:1) is added in NC group. The HaCat cells are co-transfected with an inclusion of Lip3000-OligodA-T at gradient doses (0.1 uM, 1 uM, 5 uM, 10 uM and 25 uM) of SLD-1 in the respective treatment groups.
(2) The positive control (PC), negative control (NC) and the respective treatment groups are incubated in a cell incubator containing 5% CO2 at 37° C. for 24 hours, and the cells are collected for real-time fluorescence PCR detection to observe the effect of different doses of inhibitors on the activation of AIM2 pathway in the HaCaT cells.
(4) In addition, the effect of 25 uM of SLD-1 on the transcription level of genes in the AIM2 pathway of the HaCat cell model is detected, and results are shown in FIG. 11.

HaCaT cells = test: HaCaT cell model, cell state under microscope (pyroptosis); type: cell-based; details: 25 uM, microscope 100 times and 400 times
Protocol: as §2
(3) In this situation, a cell state of 25 uM gradient is observed under microscope fields of 100 times and 400 times, and results are shown in FIG. 10.

[3] = tested on: AIM2 downstream protein in HaCaT cells; test: HaCaT cell model, expression of AIM2 downstream protein; type: cell-based; details: 25 uM
Protocol: as §2
(5) Moreover, the expression of AIM2 downstream protein in the HaCaT cells treated with 25 uM SLD-1 is detected, and results are shown in FIG. 12.

IMQ mice = test: IMQ psoriasis mouse model: PASI scores, skin phenotype, skin pathology; type: in vivo, C57/BL6 mice
Protocol: (§3) Dimethyl sulfoxide (DMSO) is used to dissolve SLD-1 powder, the powder is weighed according to different dosage, then diluted with β-cyclodextrin, and a final concentration of DMSO shall not exceed 5%. The dose gradients of SLD-1 set are 0 mg/kg, 2.5 mg/kg, 5 mg/kg and 10 mg/kg respectively. Each mouse is calculated as 20 grams (g), and 0 mg, 0.05 mg, 0.1 mg and 0.2 mg of SLD-1 are administered respective mice every day.
(§4) Seven-week-old C57/BL6 mice are selected, fed and modeled in a […] (SPF) environment. The experimental groups are as follows: • (1) mouse skin smeared with IMQ and 0 mg/kg of SLD-1; • (2) mouse skin smeared with IMQ and 2.5mg/kg of SLD-1; • (3) mouse skin smeared with IMQ and 5 mg/kg of SLD-1; • (4) mouse skin smeared with IMQ and 10 mg/kg of SLD-1; • (5) mouse skin smeared with Vaseline and 0 mg/kg of SLD-1; • (6) mouse skin smeared with Vaseline and 2.5mg/kg of SLD-1; • (7) mouse skin smeared with Vaseline and 5 mg/kg of SLD-1; and • (8) mouse skin smeared with Vaseline and 10 mg/kg of SLD-1.
(§5) Six mice in each group are shaved back hair to make a exposed skin reach 4 square centimeters. A start date of the experiment is set as day 0 and an end date is set as day 6. From day 0 to Day 5, 100 μL medicine solution is taken every day and evenly smeared mouse skin to absorb. From day 2 to day 5, each mouse 62.5 mg IMQ is smeared every day after 20 minutes of SLD-1 inhibitor. The mouse skins are scored every day, the mice are sacrificed on day 6, and skin tissue is taken for a series of tests.
PASI scores, skin phenotypes and skin pathological phenotypes of the above IMQ modeled mice are shown in FIG. 13, FIG. 14 and FIG. 15 respectively.

[4] = tested on: T lymphocytes of TCRγ/CD3+ RORγt in mouse skin; test: IMQ psoriasis mouse model: flow cytometry of skin lymphocytes; type: in vivo, C57/BL6 mice; details: 2.5 mg/kg, compared with IMQ mice without SLD-1
Protocol: as §3, §4
Six mice in each group are shaved back hair to make a exposed skin reach 4 square centimeters. A start date of the experiment is set as day 0 and an end date is set as day 6. […] The mouse skins are scored every day, the mice are sacrificed on day 6, and skin tissue is taken for a series of tests. […]

[5] = tested on: AIM2 pathway in mouse skin; test: IMQ psoriasis mouse model: AIM2 pathway gene transcription and protein levels in skin; type: in vivo, C57/BL6 mice
Protocol: as §3, §4, §5

Compound: Cn1c(=O)n(C)c2cc(C(O)COc3ccc(CNC4C5CC6CC(C5)CC4C6)cc3)ccc21 (stereo not drawn) [SLD-1]
- Kd (human AIM2 protein): 10.3 µM
- Kd (mouse AIM2 protein): 10.3 µM
- inhibitory effect on IL-1β mRNA compared with the positive control [1]: most significant inhibitory effect (p<0.0001)
- transcription of major genes in the AIM2 pathway compared with the PC [2]: significantly decreased
- IL-1β transcription levels compared to the PC ([2]; of gradient 0.1, 1, 5, 10, 25 uM, 24 hours): reduced IL-β transcription levels in the HaCat cells the most
- cell state (pyroptosis, density, adhesion) (HaCaT cells): close to that of the NC, with very few transparent pyroptosis cells, a high cell density and a good adhesion
- AIM2 downstream procaspase-1 and proIL-1β expression [3]: no effect
- content of caspase-1p20 and IL-1βp17 [3]: reduces the content of caspase-1p20 and IL-1βp17
- reduction effect on inflammatory phenotype of IMQ mice (IMQ mice; 2.5 mg/kg smeared on skin): the most significant
- reduction effect on inflammatory phenotype of IMQ mice, comparison of doses (IMQ mice; 5 mg/kg and 10 mg/kg smeared on skin): no difference between 5 mg/kg and 10 mg/kg
- inflammatory phenotype of IMQ mice (PASI, skin phenotype, pathology) (IMQ mice; three doses 2.5, 5, 10 mg/kg smeared on skin, day 0 to day 5): reduced the inflammatory phenotype of IMQ mice to varying degrees
- proportion of TCRγ/CD3+ RORγt in skin lymphocytes [4]: significantly lower
- AIM2 downstream procaspase-1 and proil-1β in the mouse skin ([5]; 2.5 mg/kg): no effect
- content of caspase-1p20 and IL-1βp17 in the mouse skin ([5]; 2.5 mg/kg): decreases the content of caspase-1p20 and IL-1βp17
- transcription levels of AIM2 pathway genes in the mouse skin ([5]; respective groups): no significant difference
